Measured values from patent US4122199A, “Amides of pyrrolidinoethylamine which can be used in treatment of coughs” (Pierre Fabre S.A., priority 1976, dated 1978).
Where a name gives a salt, the structure may show the parent alone. Read-outs that look alike come from different tables or passages of the source.

Key:
guinea pigs = test: Citric acid aerosol method on guinea pigs (antitussive); assay type: in vivo; conditions: orally, citric acid aerosol
Experimental: The animals were subjected to a 20% citric acid aerosol for 15 minutes.
The coughs were recorded by a microphone.
The products were administered intraperitoneally 20 minutes before the exposure to the aerosol.
Some derivatives were also tested orally.

[1] = Solubility characteristics; assay type: physicochemical
in vivo = conditions: mouse, in vivo, mice, isotonic aqueous solution
Experimental: It is determined on mice, the products being administered orally, intraperitoneally, and intraveneously in isotonic aqueous solution.

[2] = Hygroscopicity of crystals; assay type: physicochemical

## CCC(C(=O)NCCN1CCCC1)c1ccccc1 (stereo not drawn) [F 1419, N(2'-pyrrolidino-ethyl)-α-phenyl-α-ethyl acetamide hydrochloride]
Guinea pigs; 50 mg/kg
  % decrease in no. coughs in 15 mins.: -22
Guinea pigs; 100 mg/kg
  % decrease in no. coughs in 15 mins.: -40
[1]; N-methyl pyrrolidone, % soluble
  Solubility in N-methyl pyrrolidone: 7%
[1]; ethanol, % soluble
  Solubility in ethanol: 15%
[1]; ether, in words
  Solubility in ether: insoluble
[1]; propylene glycol, % soluble
  Solubility in propylene glycol: 25%
[1]; water, in words
  Solubility in water: very soluble
In vivo; ip, intraperitoneal, read-out: DL 50 intraperitoneal
  LD50: 200 mg/kg
In vivo; iv, intravenous, read-out: DL 50 intravenous
  LD50: 76 mg/kg
In vivo; po, oral, read-out: DL 50 oral
  LD50: 660 mg/kg
[2]
  Hygroscopicity: slightly hygroscopic
